Patent publication US7507792B2, “MDA-7 proteins and methods of use thereof” (The Trustees of Columbia University In The City of New York, priority 1993, dated 2009)

Experiments:
mda-8 = mda-8 expression (Northern blotting); format: cell-based, human; settings: H0-1
Protocol: (§1) The mass excision of the library was performed using ExAssist helper phage as described above. The SOLR strain of Escherichia coli and cDNA phagemids were mixed at 37° C. for 15 min and plated onto LB plates containing ampicillin and IPTG/X-gal. White colonies were chosen at random, isolated and grown in LB medium. Plasmid minireps and restriction enzyme digestions were performed to confirm the presence of inserts. The inserts were isolated and used as robes for Northern blotting analysis (5,25). […] Radiolabeled probes were generated by random oligonucleotide priming (25). Prehybridization, hybridization, posthybridization washes, and autoradiography were performed as described (5,18,25).

mda-9 = mda-9 expression (Northern blotting); format: cell-based, human; settings: H0-1
Protocol: as §1

[1] = test system: H0-1 human melanoma cell line; assay: 96-h growth suppression (cell number by Coulter Counter); format: cell-based; settings: for Growth Suppression (reversible): H0-1 cells, degree of initial 96 hr growth suppression versus untreated control
Protocol: FIG. 1A-B Effect of continuous exposure to various growth and differentiation modulating agents on the 96-h growth of the human melanoma cell line, H0-1. Cells were seeded at 5×10^4/35-mm tissue culture plate and 24 h later the medium was changed with the indicated compounds. Cell numbers were determined by Coulter Counter after 96-h growth. Further details can be found in Materials and Methods.
The H0-1 cell line is a melanotic melanoma derived from a person and was used between passage 100 and 125 (6,8,13). H0-1 cells were kindly provided by Dr. Beppino C. Giovanella, Stehlin Foundation for Cancer Research, Houston, Tex. Cultures were grown at 37° C. in a 95% air 5% CO2-humidified incubator in Dulbecco's modified Eagle's medium (DMEM) supplemented with 10% fetal bovine serum (DMEM-10) (Hyclone, Logan, Utah). H0-1 cells were maintained in the logarithmic stage of growth by subculturing (1:5 or 1:10) prior to confluency approximately every 4 to 5 days. […] Total cell numbers were determined after days 4, 7, 14, and 21, using a ZM Coulter Counter, and viable cell numbers were determined by trypan blue dye exclusion (6). […] Increases in cell number (two or more population doublings) after removal of the inducing agent(s) was considered reversible growth suppression. […] Conditioned medium was collected from treated cultures, contaminating cells were removed by centrifugation at 1000 rpm/10 min., and conditioned medium was stored at 4° C. until assayed for gene modulatory activity. Control conditioned medium was obtained as experimental conditioned medium from cells receiving only a medium change 24 hours after plating in the absence of test compound(s) and growth for 72 hours in DMEM-10.

mda-5 = mda-5 expression (Northern blotting); format: cell-based, human; settings: H0-1
Protocol: as §1

H0-1 cells = assay: Northern blotting analysis of steady-state mRNA levels; format: cell-based, human; settings: FIG. 1 concentrations
Protocol: Steady-state levels of specific mRNAs were determined by Northern blotting analysis of total RNA probed with appropriate ^32P-labeled gene probes as described previously (14-16). RNAs were analyzed from cells treated with inducer for 24 hours, treated for 24 hours with inducer followed by growth for 72 hours in the absence of inducer, or treated continuously for 96 hours with the inducer. The concentration of inducing compounds used were the same as those used for growth studies. The effect of conditioned medium on gene expression changes was determined by treating H0-1 cells for 24 hours with a 1:2 dilution of conditioned medium (equal volumes of conditioned medium and DMEM supplemented with 10% fetal bovine serum (DMEM-10) or for 96 hours with a 1:4 dilution of conditioned medium (1 vol. of conditioned medium to 3 vol. of DMEM-10). The probes used in the present study were specific for β-actin (17), γ-actin (17), c-jun (18), c-myc (19), fibronectin (20), gro/MGSA (21), HLA Class I antigen (22), HLA Class II antigen (HLA-DRβ) (22), α5 integrin (23), β1 integrin (24), ISG-15 (25), ISG-54 (25), jun-B (26), and tenascin (27). Northern blots were also probed with a ^32P-labeled GAPDH gene (15) to verify similar mRNA expression under the various experimental conditions. Following hybridization, the filters were washed and exposed for autoradiography.

mda-4 = mda-4 expression (Northern blotting); format: cell-based, human; settings: H0-1
Protocol: as §1

HL-525 cells = assay: OKM1 reactivity (immunofluorescence); format: cell-based, human; settings: TPA 3 nM, RA 1 μM or Vit D3 400 nM, percent OKM1 positive cells
Protocol: (§2) HL-60 cells were originally provided by Dr. R. C. Gallo (National Cancer Institute, Bethesda, Md.) (Collins et al., 1978; Huberman & Callaham, 1979). HL-60 cells designated HL-525 were derived by cloning HL-60 cells after subculturing 102 times in the presence of increasing concentrations (up to 3 μM) of TPA at 5- to 8-day intervals (Homma et al., 1986; Mitchell et al., 1986). […] Prior to the experiments described in this study, the HL-525 cells were subcultured more than 20 times in the absence of TPA. Cells were grown in 100-mm tissue culture dishes in RPMI 1640 medium supplemented with 20% fetal bovine serum, penicillin (100 units/ml) and streptomycin (100 μg/ml) (Grand Island Biological Co., NY) at 37° C. in an atmosphere of 5% CO2 in air in a humidified incubator. The 1,25-(OH)2D3(Vit D3) and TPA were dissolved in a final concentration of 0.01% DMSO, and all-trans retinoic acid (RA) was dissolved in 0.1% DMSO in culture medium. […] Control cultures were treated with DMSO at a final concentration of 0.1% in culture medium. For experiments designed to test the effect of DMSO on HL-60 and HL-525 cells, DMSO was added to tissue culture medium at a final concentration of 1%. Stock solutions of CHX (10 mg/ml) were prepared in culture medium. CHX was added at a final concentration of 10 μg/ml. To examine a requirement for protein synthesis on mda-6 gene expression, HL-60 or HL-525 cells were seeded into 150 mm Petri dishes (5×10^5 cells/ml) in 30 ml of medium. CHX was added to a final concentration of 10 μg/ml 15 min prior to the addition of TPA to 3 nM. Cells were harvested at various times after addition of TPA for subsequent RNA isolation and analysis.
(§3) Cell counts were determined by hemocytometer chamber counting. Immunofluorescence tests for reactivity with the OKM1 antibody (Ortho Pharmaceutical Corp., Raritan, N.J.) were performed as previously described (Murao et al., 1983).

HL-60 cells = assay: OKM1 reactivity (immunofluorescence); format: cell-based, human; settings: TPA 3 nM, RA 1 μM or Vit D3 400 nM, percent OKM1 positive cells
Protocol: as §2, §3

[2] = 24 hours, doses of FIG. 19, phenyl butyrate 24 hours, 4 days or 7 days
[3] = 96 hours, doses of FIG. 15 legend

SMILES | mda-8 expression (mda-8; [3]) | mda-9 expression (mda-9; [3]) | Growth Suppression (reversible) ([1]; Table 1) | Growth Suppression (reversible) ([1]; Table 2) | mda-5 expression (mda-5; [3]) | HLA Class I antigen gene expression (H0-1 cells; 96 h) | fibronectin expression (H0-1 cells; 96 h) | induction of gro/MGSA gene expression (H0-1 cells; 96 h) | tenascin expression (H0-1 cells; 96 h) | OKM1 reactivity, Days of induction 4 (HL-525 cells) [%] | OKM1 reactivity, Days of induction 6 (HL-525 cells) [%] | OKM1 reactivity, Days of induction 2 (HL-60 cells) [%] | OKM1 reactivity, Days of induction 4 (HL-60 cells) [%] | OKM1 reactivity, Days of induction 6 (HL-60 cells) [%] | other results
C=C(C)[C@@]12O[C@@]3(c4ccccc4)O[C@@H]1[C@@H]1[C@@H]4O[C@]4(CO)[C@@H](O)[C@]4(O)C(=O)C(C)=C[C@H]4[C@@]1(O3)[C@H](C)[C@H]2OC(=O)/C=C/C=C/c1ccccc1 [MEZ, mezerein] | No change in expression | No change in mda-9 expression | 1+ (1+ = ~30% reduction in growth in comparison with untreated control cultures) | 1+ (1+ = ~30% reduction in growth in comparison with untreated control cultures) | No change in expression | did not significantly alter | less potent | did not | decreased tenascin expression | – | – | – | – | – | mda-8 expression (mda-8; [2]): No change in expression; mda-9 expression (mda-9; [2]): Increased expression; mda-5 expression (mda-5; [2]): No change in expression; c-jun and jun-B expression (H0-1 cells; 96 hours): increase; c-myc expression (H0-1 cells; 96 hours): downregulated; mda-4 expression (mda-4; [3]): No or only a small change in expression
CC1=C(/C=C/C(C)=C/C=C/C(C)=C/C(=O)O)C(C)(C)CCC1 [RA, trans-retinoic acid] | No change in expression | No change in mda-9 expression | − (− = no significant change in growth (<10% reduction in growth in comparison with untreated control cultures)) | − (− = no significant change in growth (<10% reduction in growth in comparison with untreated control cultures)) | No change in expression | did not significantly alter | least effective | did not | decreased tenascin expression | 10 | 13 | 49 | 76 | 77 | inhibition of H0-1 growth ([1]; H0-1, 96 hours, FIG. 1 concentrations): no inhibition of growth; α5 integrin expression (H0-1 cells; 96 h): reduced; β-actin and γ-actin expression (H0-1 cells; 96 h): did not significantly alter; mda-4 expression (mda-4; [2]): No or only a small change in expression
CCCCCCCCCCCCCC(=O)O[C@@H]1[C@@H](C)[C@@]2(O)[C@@H](C=C(CO)C[C@]3(O)C(=O)C(C)=C[C@@H]23)[C@@H]2C(C)(C)[C@]12OC(C)=O [TPA, 12-O-tetradecanoyl-phorbol-13-acetate] | – | – | – | – | – | – | – | – | – | 8 | 4 | 55 | 81 | 95 | –
